Source: PMC3946342, “Evaluating Molecular Mechanism of Hypotensive Peptides Interactions with Renin and Angiotensin Converting Enzyme” (PLoS ONE, 2014)
Several values for one entry are separate records, joined by “and”; a condition that tells them apart may be missing. Equal values may be shown once. Values belong to the compound of their own block, whether it stands above or below them. Residues, ends and D or L forms follow the SMILES beside them.

Assays:
renin [1] = target: T1, renin (Homo sapiens, UniProt P00797); assay: Kinetics of renin inhibition (Lineweaver-Burk); format: biochemical; conditions: for Mode of renin inhibition: double reciprocal plot; for K′m / V′max / Ki: renin; for Ki: secondary plot of Lineweaver-Burk slopes, read-out: Ki (enzyme-inhibitor dissociation constant)
T1 construct: purchased Cayman Chemicals 10006217
T1 sequence (P00797 67-406): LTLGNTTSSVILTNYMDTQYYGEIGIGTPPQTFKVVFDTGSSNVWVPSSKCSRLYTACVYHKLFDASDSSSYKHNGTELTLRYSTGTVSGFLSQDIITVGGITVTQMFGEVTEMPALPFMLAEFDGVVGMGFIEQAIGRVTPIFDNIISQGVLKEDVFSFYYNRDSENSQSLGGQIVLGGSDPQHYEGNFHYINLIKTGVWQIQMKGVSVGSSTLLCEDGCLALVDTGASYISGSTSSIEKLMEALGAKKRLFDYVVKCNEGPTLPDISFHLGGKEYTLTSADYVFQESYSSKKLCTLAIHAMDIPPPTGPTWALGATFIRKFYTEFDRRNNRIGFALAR
Method: (§1) Kinetics of ACE and renin inhibition was determined using a previously described method. For ACE inhibition, the substrate (FAPGG) concentrations were 0.0625, 0.125, 0.25 and 0.5 mM, while renin substrate concentrations were 1.25, 2.5, 5 and 10 µM. Peptide concentrations used during the assays are shown in Tables 1 and 2 for the kinetics of ACE and renin inhibition, respectively. The modes of ACE and renin inhibition were determined from Lineweaver-Burk plots while inhibition parameters (Vmax and Km) were calculated, respectively, as the Y and X-axis intercepts of the primary plot. Ki was calculated as the X-axis intercept of the line obtained from a secondary plot of Lineweaver-Burk line slopes versus peptide concentrations.

renin [2] = target: T1, renin; assay: Intrinsic fluorescence emission of renin with peptides; format: binding
Method: Fluorescence emission spectra were obtained using the method of Li et al.. Briefly, 25 µL of 1 U/mL ACE (prepared in 50 mM Tris–HCl buffer, pH 7.5, containing 300 mM NaCl) or 25 µL of 250 µg/mL renin (prepared in 50 mM Tris–HCl buffer, pH 8.0, containing 100 mM NaCl) was mixed with 50 µL of peptide solution and 25 µL of the appropriate buffer to yield a 100 µL assay solution. Emission spectra were recorded at 25°C using a micro quartz cell (100 µL capacity) on a JASCO FP-6300 spectrofluorimeter (JASCO, Tokyo, Japan). ACE or renin assay solutions were excited at 280 nm and emission recorded from 290 to 450 nm. Emission spectrum of the respective buffer, peptides and enzymes was subtracted from the emission spectrum of each assay solution.

renin [3] = target: T1, renin; assay: Far-UV circular dichroism of renin-peptide complex; conditions: for Unordered / α-helix / β-sheet / β-turn: renin
Method: (§2) Far-UV CD spectra were obtained using a JASCO J-815 spectropolarimeter (JASCO, Tokyo, Japan) under constant nitrogen flush according to the method of Omoni and Aluko [11]. A 0.5 mm pathlength quartz cell was used for the far UV (190–240 nm) measurements and each final spectrum was the average of three consecutive scans with simultaneous subtraction of the respective buffer, peptides and enzymes spectrum. For determining the peptide-enzyme interaction spectra, 150 µL of 1 U/mL ACE (prepared in 50 mM Tris–HCl buffer, pH 7.5, containing 300 mM NaCl) or 150 µL of 250 µg/mL renin (prepared in 50 mM Tris–HCl buffer, pH 8.0, containing 100 mM NaCl) was mixed with 50 µL of a peptide solution. The far-UV CD spectra in the 200–240 nm range were analyzed for secondary structure fractions using the online DICHROWEB procedure.

renin [4] = test system: renin; parameters: method as in earlier work; conditions: previously determined ref 8; read-out: IC50 for renin inhibition; cited from earlier work
Rabbit lung ACE = target: T2, Rabbit lung ACE (Oryctolagus cuniculus, UniProt P12822); assay: Kinetics of ACE inhibition (Lineweaver-Burk, FAPGG substrate); format: biochemical
T2 construct: Rabbit lung ACE (A6778, 98% purity); purchased Sigma-Aldrich A6778; host or cells: rabbit lung (tissue-derived)
T2 sequence (P12822 34-1310): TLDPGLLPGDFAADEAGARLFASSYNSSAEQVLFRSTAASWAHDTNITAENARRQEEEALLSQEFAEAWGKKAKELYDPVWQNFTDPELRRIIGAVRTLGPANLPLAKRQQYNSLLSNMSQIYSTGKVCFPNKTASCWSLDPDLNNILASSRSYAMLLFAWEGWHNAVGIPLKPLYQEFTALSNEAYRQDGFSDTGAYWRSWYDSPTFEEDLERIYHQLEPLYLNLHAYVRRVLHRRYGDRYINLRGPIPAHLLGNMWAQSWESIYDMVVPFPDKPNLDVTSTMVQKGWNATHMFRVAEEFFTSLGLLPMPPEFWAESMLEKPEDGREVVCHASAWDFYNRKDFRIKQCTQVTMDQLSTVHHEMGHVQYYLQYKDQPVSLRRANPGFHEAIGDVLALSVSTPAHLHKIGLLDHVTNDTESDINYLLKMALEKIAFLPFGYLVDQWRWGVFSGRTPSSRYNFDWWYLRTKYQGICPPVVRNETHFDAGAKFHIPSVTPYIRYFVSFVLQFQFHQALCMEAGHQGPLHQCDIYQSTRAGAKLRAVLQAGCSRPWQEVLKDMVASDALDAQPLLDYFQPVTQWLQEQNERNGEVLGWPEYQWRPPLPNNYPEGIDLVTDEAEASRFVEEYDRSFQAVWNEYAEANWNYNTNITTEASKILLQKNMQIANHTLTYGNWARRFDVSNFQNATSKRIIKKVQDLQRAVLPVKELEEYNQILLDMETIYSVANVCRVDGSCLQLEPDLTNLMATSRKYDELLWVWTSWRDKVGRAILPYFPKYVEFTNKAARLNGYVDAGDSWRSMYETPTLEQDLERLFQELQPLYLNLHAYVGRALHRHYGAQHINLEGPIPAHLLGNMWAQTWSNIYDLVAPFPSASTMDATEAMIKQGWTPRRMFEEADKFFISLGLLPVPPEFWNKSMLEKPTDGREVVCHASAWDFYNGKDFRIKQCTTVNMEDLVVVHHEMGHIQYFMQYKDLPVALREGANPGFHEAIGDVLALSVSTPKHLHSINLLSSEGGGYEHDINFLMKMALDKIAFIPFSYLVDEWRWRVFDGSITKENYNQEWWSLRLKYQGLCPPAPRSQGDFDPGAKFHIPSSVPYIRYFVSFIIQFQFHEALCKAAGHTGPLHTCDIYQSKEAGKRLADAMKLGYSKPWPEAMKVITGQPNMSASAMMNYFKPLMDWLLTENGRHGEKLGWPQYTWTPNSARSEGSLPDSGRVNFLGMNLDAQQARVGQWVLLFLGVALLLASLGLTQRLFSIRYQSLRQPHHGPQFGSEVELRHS
Method: as §1

ACE [5] = target: T3, ACE (Oryctolagus cuniculus, UniProt P12822); assay: Far-UV circular dichroism of ACE-peptide complex; parameters: species or system Rabbit
T3 construct: Rabbit lung ACE (A6778, 98% purity); purchased Sigma-Aldrich A6778; host or cells: rabbit lung (tissue-derived)
T3 sequence (P12822 34-1310): T2 sequence (P12822 34-1310)
Method: as §2

ACE [6] = test system: ACE; parameters: method as in earlier work; conditions: previously determined ref 8; read-out: IC50 for ACE inhibition; cited from earlier work
ACE [7] = conditions: cited from earlier work

Mode of renin inhibition (renin [1]): uncompetitive
K′m (renin [1]; LY 0.8493 mM): 2.45 µM
V′max (renin [1]; LY 0.8493 mM): 17.74 FI/min
K′m (renin [1]; LY 1.6986 mM): 3.11 µM
V′max (renin [1]; LY 1.6986 mM): 17.63 FI/min
Ki (renin [1]): 2240 µM
λmax of renin emission (renin [2]; 0.170 mM peptide): 326 nm
Unordered (renin [3]; peptide 12.5 µg/mL): 30.37±0.23^F %
α-helix (renin [3]; peptide 12.5 µg/mL): 4.63±0.12^B %
β-sheet (renin [3]; peptide 12.5 µg/mL): 44.41±0.61^B %
β-turn (renin [3]; peptide 12.5 µg/mL): 19.41±0.17^B %
Unordered (renin [3]; peptide 25 µg/mL): 74.87% and 74.87±0.31^B %
α-helix (renin [3]; peptide 25 µg/mL): 2.63±0.32^C %
β-sheet (renin [3]; peptide 25 µg/mL): 4.33±0.32^E %
β-turn (renin [3]; peptide 25 µg/mL): 19.73±1.45^B %
Compound: CC(C)C[C@H](N)C(=O)N[C@@H](Cc1ccc(O)cc1)C(=O)O [LY, Leu-Tyr]
IC50 (renin [4]): 1870 µM

Ki (Rabbit lung ACE; ACE, secondary plot of Lineweaver-Burk slopes, read-out: Ki (enzyme-inhibitor dissociation constant)): 104 µM
Ki (renin [1]): 285 µM
Compound: CC(C)C[C@H](NC(=O)[C@H](C)NC(=O)[C@@H](N)CCCNC(=N)N)C(=O)N1CCC[C@H]1C(=O)O [RALP, Arg-Ala-Leu-Pro] (H-RALP-OH)

K′m (Rabbit lung ACE; ACE, TF 0.1887 mM): 1.0088 mM
V′max (Rabbit lung ACE; ACE, TF 0.1887 mM): 0.0185 ΔA/min
K′m (Rabbit lung ACE; ACE, TF 0.7510 mM): 0.5546 mM
V′max (Rabbit lung ACE; ACE, TF 0.7510 mM): 0.0097 ΔA/min
Mode of ACE inhibition (Rabbit lung ACE; Lineweaver-Burk plots): mixed-type
Mode of renin inhibition (renin [1]): non-competitive
K′m (renin [1]; TF 0.9387 mM): 4.78 µM
V′max (renin [1]; TF 0.9387 mM): 25.89 FI/min
K′m (renin [1]; TF 3.7551 mM): 4.41 µM
V′max (renin [1]; TF 3.7551 mM): 17.20 FI/min
λmax of renin emission (renin [2]; 0.047 mM peptide, 328.5 nm without peptide): 326 nm
λmax of renin emission (renin [2]; 0.094 mM peptide, 328.5 nm without peptide): 327 nm
Decrease in FI (renin [2]; renin paragraph (printed ACE FI), LY at 0.170 mM, concentration for TF, RALP not given): 47%
Unordered (ACE [5]; peptide 12.5 µg/mL): 22.31±2.25^E %
α-helix (ACE [5]; peptide 12.5 µg/mL): 16.55±0.49^B %
β-sheet (ACE [5]; peptide 12.5 µg/mL): 41.67±2.17% and 41.67±2.17^A %
β-turn (ACE [5]; peptide 12.5 µg/mL): 16.97±0.31^C %
Unordered (ACE [5]; peptide 25 µg/mL): 39.9±1.56^B %
α-helix (ACE [5]; peptide 25 µg/mL): 13.43±0.72^C %
β-sheet (ACE [5]; peptide 25 µg/mL): 29.17±0.86% and 29.17±0.86^B %
β-turn (ACE [5]; peptide 25 µg/mL): 17.33±0.64^C %
Factor of increase of unordered fraction in renin (renin [3]; 0.094 mM peptide): 2.25
Factor of reduction of β-sheet fraction in renin (renin [3]; 0.094 mM peptide): ~6
Unordered (renin [3]; peptide 12.5 µg/mL): 28.91±0.25^G %
α-helix (renin [3]; peptide 12.5 µg/mL): 2.91±0.26^C %
β-sheet (renin [3]; peptide 12.5 µg/mL): 46.97±0.31^A %
β-turn (renin [3]; peptide 12.5 µg/mL): 21.37±0.06^A %
Unordered (renin [3]; peptide 25 µg/mL): 72.25±0.21^C %
α-helix (renin [3]; peptide 25 µg/mL): 0.95±0.07^D %
β-sheet (renin [3]; peptide 25 µg/mL): 7.91±0.85^D %
β-turn (renin [3]; peptide 25 µg/mL): 18.95±0.21^B %
Compound: C[C@@H](O)[C@H](N)C(=O)N[C@@H](Cc1ccccc1)C(=O)O [TF, Thr-Phe] (H-Thr-Phe-OH; N-terminus and C-terminus assumed)
IC50 (ACE [6]): 810 µM
IC50 (renin [4]): 3060 µM

Compound: AWLHPGAPKVF
Mode of ACE inhibition (ACE [7]): competitive

Compound: FEDYVPLSCF
Mode of ACE inhibition (ACE [7]): mixed-type

Compound: FNVPLYE
Mode of ACE inhibition (ACE [7]): mixed-type

Compound: RMLGQTP
Mode of ACE inhibition (ACE [7]): mixed-type
